Entries after “also recorded” stand apart in the source; their conditions may differ.

Data on four substances can be found in patent US5876715A, “Antibodies that bind novel carbohydrate ligands (myelorollins) that cause E-selectin dependent cell rolling, and uses thereof” (The Biomembrane Institute, priority 1996, dated 1999).

The target in assay [1] is T1, E-selectin-Ig fusion protein (Homo sapiens, UniProt P16581).
T1 construct: Fc is only a tag
T1 sequence (P16581 22-610): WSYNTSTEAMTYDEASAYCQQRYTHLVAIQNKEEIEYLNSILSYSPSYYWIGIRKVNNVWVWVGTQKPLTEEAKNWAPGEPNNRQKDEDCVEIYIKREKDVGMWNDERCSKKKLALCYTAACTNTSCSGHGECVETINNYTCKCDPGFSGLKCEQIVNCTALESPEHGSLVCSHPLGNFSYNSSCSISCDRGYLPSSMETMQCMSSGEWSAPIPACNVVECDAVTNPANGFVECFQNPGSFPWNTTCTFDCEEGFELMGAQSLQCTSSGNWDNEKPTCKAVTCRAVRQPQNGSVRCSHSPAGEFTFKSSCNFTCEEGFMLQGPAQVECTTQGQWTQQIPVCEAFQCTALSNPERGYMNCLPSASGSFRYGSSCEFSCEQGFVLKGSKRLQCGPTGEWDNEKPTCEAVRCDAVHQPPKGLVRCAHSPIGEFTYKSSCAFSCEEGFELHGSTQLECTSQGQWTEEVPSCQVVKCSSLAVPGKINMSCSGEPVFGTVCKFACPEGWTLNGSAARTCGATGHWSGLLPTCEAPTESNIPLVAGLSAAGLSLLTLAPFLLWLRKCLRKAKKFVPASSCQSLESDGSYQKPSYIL
Nature of the assay: Direct binding of ganglioside-coated latex beads to E-selectin-Ig coated fluorescent beads by flow cytometry. The conditions noted are these: ganglioside-coated latex beads mixed with E-selectin-Ig fluorescent beads. On the procedure:
5×10^6 polystyrene latex beads (diameter […]) (IDC Spheres™; IDC, Portland, Oreg.) were washed with ethanol by centrifugation. 1 μg of GSL in 50 μL of ethanol was added to the washed beads and the mixture was evaporated under nitrogen stream. The beads were resuspended in 1% BSA in PBS(+) and washed twice by centrifugation. Washed beads were blocked with 3% BSA in PBS(+) at room temperature for 2 hr. After centrifugation, beads were resuspended in 1% BSA in PBS(+) with 0.1% azide and stored at 4° C. Yellow-green fluorescent sulfated latex beads (diameter 1 μm) (Molecular Probes, Inc., Portland, Oreg.) were coated with goat anti-human IgG (Fc-fragment specific) antibody (Jackson Immunoresearch Lab, West Grove, Pa.) according to manufacturer's protocol. After washing 3× with PBS, beads were blocked with 3% BSA in PBS at 4° C. for 2 hr. Blocked beads (about 5×10^8) were mixed with 1.5 mL of E- or P-selectin-Ig fusion protein containing culture supernatant (about 1 μg/mL fusion protein) from CHO transfectants (Handa et al., 1995 Int. J. Oncol. 6:773-781) with a blood mixer at 4° C. for 6-18 hr. This mixing procedure was repeated 3 times more using new culture supernatant containing the fusion protein. After washing with PBS, beads were incubated in 1 mL PBS containing 50 μg human IgG (Jackson Immunoresearch). For preparation of control beads, human IgG was used at 1 μg/mL, instead of fusion protein. The ganglioside-coated beads were mixed with the fluorescent beads at room temperature for various durations. The resulting suspension was subjected to flow cytometric analysis. Conditions of each assay are detailed below.
Adhesion under conditions of E- or P-selectin-binding to various gangliosides was assessed by a novel, sensitive method using E- or P-selectin-coated fluorescent beads (FIGS. 2 and 3). Adhesion was determined by aggregation of polystyrene beads coated with myelorollin, and selectin-coated fluorescent beads. Gangliosides were coated on non-fluorescent polystyrene beads and mixed with fluorescent beads coated with E- or P-selectin in the presence or absence of EDTA. Since aggregation occurs under brief, strong agitation, the process is neither "static" nor "dynamic" adhesion, in which myelorollin is presented as immovable solid phase. In this system, solid phases containing both myelorollin and selectin are in dynamic condition. Binding was determined by cytofluorometry. Ganglioside fractions used in this experiment were the same as described in Table 1. In addition: Sdiy^2, sialosyl Le^x -Le^x (VI^3 NeuAcV^3 FucIII^3 FucnLc6 Cer); SLe^x (IV^3 NeuAcIII^3 FucnLc4 Cer). These designated structures are based on ^1 H NMR, mass spectrometry. Binding index was defined as mean fluorescence intensity (MFI) of ganglioside fraction divided by MFI of sialylparagloboside (IV^3 NeuAcnLc4 Cer).
Referring to FIG. 2: open columns, E-selectin-IgG beads. Lighter shaded columns, E-selectin-IgG beads in the presence of 5 mM EDTA. Darker shaded columns, P-selectin-IgG beads. Solid columns, human IgG control beads. The binding of myelorollin to E-selectin beads was completely abolished in the presence of EDTA; myelorollin was unable to bind to P-selectin.
Binding index was defined as MFI of sample divided by MFI of sialylparagloboside as in FIG. 2. Open columns, E-selectin-IgG beads preincubated with control mouse IgG. Solid columns, E-selectin-IgG beads preincubated with mAb E1C. […]

Assay [2] has as its system CHO cells permanently expressing E-selectin. The conditions noted are these: TLC overlay, Stroud et al. 1995, 1996; cited from earlier work.

With “VI^3 NeuAcV^3 FucIII^3 FucnLc6 Cer [SLe^x -Le^x, reference compound]”, the “binding to E-selectin beads (binding index, MFI relative to sialylparagloboside)” value in assay [1] (listed as Str. 3) is “did show binding; also recorded: bound to E-selectin”.
Turning to “X^3 NeuAcVII^3 FucV^3 FucnLc10 Cer [Fr. 13-1]”, in assay [2], the “E-selectin binding/adhesion under static conditions in previous studies” value is “capable of binding E-selectin under static conditions”. In addition, the “binding to E-selectin beads (binding index, MFI relative to sialylparagloboside)” value in assay [1] is listed as “clear binding; also recorded: bind strongly to E-selectin”.
As for VI^3 NeuAcnLc6 Cer [Fr. 7], the results for the “binding to E-selectin beads (binding index, MFI relative to sialylparagloboside)” value in assay [1] and in assay [1] (listed as Str. 1) were “no binding to E-selectin” and “no binding whatsoever”, respectively.
Turning to X^3 NeuAcVII^3 FucnLc10 Cer [Fr. 12-2], in assay [1], the “binding to E-selectin beads (binding index, MFI relative to sialylparagloboside)” value is given as “weak adhesion”.
